# From paper PMC8026324, “In Vitro Antiplasmodial, Heme Polymerization, and Cytotoxicity of Hydroxyxanthone Derivatives” (Journal of Tropical Medicine, 2021)
# Tests used:
# [1] = tested on: Plasmodium falciparum 3D-7 (chloroquine-sensitive strain); test: In vitro antiplasmodial activity assay, microscopic method, strain 3D-7; assay type: cell-based
# How it was run: (§1)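 Sorbitol-synchronized ring-stage parasites at 1% parasitemia, 2% haematocrit in RPMI with 10% human O serum, exposed to compound dilutions in triplicate for 72 h at 37 °C. Parasitemia counted on Giemsa smears (≥1,000 erythrocytes); IC50 from growth inhibition by probit analysis.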
# [2] = tested on: Plasmodium falciparum FCR-3 (chloroquine-resistant strain); test: In vitro antiplasmodial activity assay, microscopic method, strain FCR-3; assay type: cell-based
# How it was run: as §1
# [3] = tested on: formation of β-hematin (heme polymerization); test: In vitro heme polymerization inhibitory activity (HPIA) assay; assay type: biochemical
# Experimental: The heme polymerization inhibitory activity (HPIA) was conducted according to Basilico et al.'s modified method. The 100 μL of 1 mM hematin in 0.2 M NaOH was added into a microtube. […] Distilled water was used as a negative control. The 50 μL solution of glacial acetic acid (pH 2.6) was added into the microtube to initiate the polymerization reaction and incubated at a temperature of 37°C for 24 hours. Microtubes were centrifuged at 8000 rpm for 10 minutes and the supernatant was discarded and then washed three times using the 200 μL dimethyl sulfoxide (DMSO).Then, the deposition of the hematin crystal was dissolved with 200 μL of 0.1 M NaOH and 100 μL of solution was added into the 96-well microplate.
# Absorbance was read using ELISA reader at λ 405 nm. A standard curve was made to illustrate the relationship between the concentration of hematin and its absorbance. The various concentrations of hematin (250; 125; 62.5; 31.25; 15.6; 7.8; and […]) were used to make the standard curve. The heme polymerization inhibition was expressed as IC50, which is the concentration of testing compounds that can inhibit 50% of the formation of β-hematin. The IC50 value was calculated by probit analysis using SPSS software (IBM Corp., Chicago).
# MCF-7 = tested on: MCF-7; set-up: method as in earlier work; conditions: cited from earlier work
# WIDR = tested on: WIDR; set-up: method as in earlier work; conditions: cited from earlier work
# Hela = tested on: Hela; set-up: method as in earlier work; conditions: cited from earlier work
structure (smiles),measurement,setting,value
"O=c1c2c(O)cccc2oc2cc(O)cc(O)c12 [HX1, 1,6,8-trihydroxyxanthone]",inhibition at 6.39 µM,"[1]; Plasmodium falciparum, 6.39 μM, read-out: Growth inhibition of P. falciparum Strain 3D-7",47.4 ± 5.86%
same,inhibition at 12.8 µM,"[1]; Plasmodium falciparum, 12.8 μM, read-out: Growth inhibition of P. falciparum Strain 3D-7",61.5 ± 0.71%
same,inhibition at 25.59 µM,"[1]; Plasmodium falciparum, 25.59 μM, read-out: Growth inhibition of P. falciparum Strain 3D-7",64.7 ± 0.861%
same,inhibition at 51.19 µM,"[1]; Plasmodium falciparum, 51.19 μM, read-out: Growth inhibition of P. falciparum Strain 3D-7",69 ± 0.888%
same,inhibition at 102.38 µM,"[1]; Plasmodium falciparum, 102.38 μM, read-out: Growth inhibition of P. falciparum Strain 3D-7",75.86 ± 0.471%
same,IC50,"[1]; Plasmodium falciparum, 72 hours incubation, microscopic method, read-out: IC50 on P. falciparum 3D-7",6.1 ± 2.01 µM
same,antiplasmodial activity category on P. falciparum 3D-7,[1]; category by IC50,good (good (IC50 1–20 μM))
same,inhibition at 6.39 µM,"[2]; Plasmodium falciparum, FCR3, 6.39 μM, read-out: Growth inhibition of P. falciparum Strain FCR-3",50.9 ± 2.31%
same,inhibition at 12.8 µM,"[2]; Plasmodium falciparum, FCR3, 12.8 μM, read-out: Growth inhibition of P. falciparum Strain FCR-3",55.2 ± 3.59%
same,inhibition at 25.59 µM,"[2]; Plasmodium falciparum, FCR3, 25.59 μM, read-out: Growth inhibition of P. falciparum Strain FCR-3",60.2 ± 2.74%
same,inhibition at 51.19 µM,"[2]; Plasmodium falciparum, FCR3, 51.19 μM, read-out: Growth inhibition of P. falciparum Strain FCR-3",64.4 ± 0.671%
same,inhibition at 102.38 µM,"[2]; Plasmodium falciparum, FCR3, 102.38 μM, read-out: Growth inhibition of P. falciparum Strain FCR-3",73.7 ± 4.28%
same,IC50,"[2]; Plasmodium falciparum, FCR3, 72 hours incubation, microscopic method, read-out: IC50 on P. falciparum FCR-3",6.76 ± 2.38 µM
same,antiplasmodial activity category on P. falciparum FCR-3,[2]; category by IC50,good (good (IC50 1–20 μM))
same,IC50,"[3]; 24 hours, 37°C, glacial acetic acid pH 2.6",2850 µM
same,Inhibition of β-hematin,[3]; compound 1.269 mM,33.901%
same,β-Hematin formed,[3]; compound 1.269 mM,72.500 mM
same,Inhibition of β-hematin,[3]; compound 2.580 mM,49.149%
same,β-Hematin formed,[3]; compound 2.580 mM,55.776 mM
same,Inhibition of β-hematin,[3]; compound 5.119 mM,50.359%
same,β-Hematin formed,[3]; compound 5.119 mM,54.448 mM
same,Inhibition of β-hematin,[3]; compound 10.238 mM,86.893%
same,β-Hematin formed,[3]; compound 10.238 mM,14.376 mM
same,Inhibition of β-hematin,[3]; compound 20.475 mM,91.171%
same,β-Hematin formed,[3]; compound 20.475 mM,9.684 mM
same,cytotoxicity on MCF-7 (in words),MCF-7,weak
same,IC50 on MCF-7 cell line,MCF-7; in vitro cytotoxicity,45 mg/L
same,cytotoxicity on WIDR (in words),WIDR,weak
same,IC50 on WIDR cell line,WIDR; in vitro cytotoxicity,61.9 mg/L
same,cytotoxicity on Hela (in words),Hela,weak
same,IC50 on Hela cell line,Hela; in vitro cytotoxicity,67.7 mg/L
